Among the data in patent publication US7208500B2, “Thienopyridine-phenylacetamides and their derivatives useful as new anti-angiogenic agents” (Agouron Pharmaceuticals, Inc., priority 2003, dated 2007) are Ki, inhibition and IC50 values, retold here.

The term Ki denotes the equilibrium dissociation constant of an inhibitor or competing ligand from its target. Read a high Ki as lower affinity. A word on the IC50: it is the concentration at which inhibition is half-maximal.

The target in assay [1] is T1, unphosphorylated VEGF-R2D50 (FLVK), cytosolic domain of human VEGF-R2 (Homo sapiens, UniProt P35968, DEL940-989/E990V).
T1 construct: VEGF-R2D50 contains residues 806–939 and 990–1171; made in house; host or cells: baculovirus/insect cell system
The assay is described as follows: VEGF-R2 coupled spectrophotometric assay (FLVK). The format is biochemical. An excerpt: This construct determines the ability of a test compound to inhibit tyrosine kinase activity. A construct (VEGF-R2D50) of the cytosolic domain of human vascular endothelial growth factor receptor 2 (VEGF-R2) lacking the 50 central residues of the 68 residues of the kinase insert domain was expressed in a baculovirus/insect cell system. Of the 1356 residues of full-length VEGF-R2, VEGF-R2D50 contains residues 806–939 and 990–1171, and also one point mutation (E990V) within the kinase insert domain relative to wild-type VEGF-R2. Autophosphorylation of the purified construct was performed by incubation of the enzyme at a concentration of […] in the presence of 3 mM ATP and 40 mM MgCl2 in 100 mM HEPES, pH 7.5, containing 5% glycerol and 5 mM DTT, at 4° C. for 2 h. […] See Parast et al., Biochemistry, 37, 16788–16801 (1998).
The production of ADP from ATP that accompanies phosphoryl transfer was coupled to oxidation of NADH using phosphoenolpyruvate (PEP) and a system having pyruvate kinase (PK) and lactic dehydrogenase (LDH). The oxidation of NADH was monitored by following the decrease of absorbance at 340 nm (e340=6.22 cm^−1 mM^−1) using a Beckman DU 650 spectrophotometer. Assay conditions for phosphorylated VEGF-R2D50 (indicated as FLVK-P in the tables below) were the following: 1 mM PEP; […]; 50 units of LDH/mL; 20 units of PK/mL; 5 mM DTT; 5.1 mM poly(E4Y1); 1 mM ATP; and 25 mM MgCl2 in 200 mM HEPES, pH 7.5. Assay conditions for unphosphorylated VEGF-R2D50 (indicated as FLVK in the tables) were the following: 1 mM PEP; […]; 50 units of LDH/mL; 20 units of PK/mL; 5 mM DTT; 20 mM poly(E4Y1); 3 mM ATP; and 60 mM MgCl2 and 2 mM MnCl2 in 200 mM HEPES, pH 7.5. Assays were initiated with 5 to 40 nM of enzyme. Ki values were determined by measuring enzyme activity in the presence of varying concentrations of test compounds. The percent inhibition at 50 nm (% inhibition@50 nm) was determined by linear least-squares regression analysis of absorpbance as a function of time. The binding inhibitions were fitted to equation as described by Morrison. The data were analyzed using Enzyme Kinetic and Kaleidagraph software.

The target in assay [2] is T2, FGF-R1 intracellular kinase domain (Homo sapiens, UniProt P11362, C488A/C584S/L457V).
T2 construct: starting from the endogenous methionine residue 456 to glutamate 766; made in house; host or cells: baculovirus vector expression system
Description: FGF-R spectrophotometric assay. The format is biochemical. The conditions noted are these: 50 nM test compound; read-out: FGF-P (% inh @ 50 nM). The protocol:
The intracellular kinase domain of human FGF-R1 was expressed using the baculovirus vector expression system starting from the endogenous methionine residue 456 to glutamate 766, according to the residue numbering system of Mohammadi et al., Mol. Cell. Biol., 16, 977–989 (1996). In addition, the construct also has the following 3 amino acid substitutions: L457V, C488A, and C584S.
The spectrophotometric assay was carried out as described above for VEGF-R2, except for the following changes in concentration: FGF-R=50 nM, ATP=2 mM, and poly(E4Y1)=15 mM.

For assay [3], the system named is human umbilical vein endothelial cells (HUVEC). Description: HUVEC + VEGF proliferation assay. The format is cell-based. As to conditions: VEGF-stimulated proliferation, final VEGF 6 ng/mL, 72 hours, MTT. The method, then: This assay determines the ability of a test compound to inhibit the growth factor-stimulated proliferation of human umbilical vein endothelial cells (“HUVEC”). HUVEC cells (passage 3–4, Clonetics, Corp.) were thawed into EGM2 culture medium (Clonetics Corp) in T75 flasks. Fresh EGM2 medium was added to the flasks 24 hours later. Four or five days later, cells were exposed to another culture medium (F12K medium supplemented with 10% fetal bovine serum (FBS), […] endothelial cell growth supplement (ECGS), and 0.1 mg/mL heparin). Exponentially-growing HUVEC cells were used in experiments thereafter. Ten to twelve thousand HUVEC cells were plated in 96-well dishes in […] of rich, culture medium (described above). The cells were allowed to attach for 24 hours in this medium. The medium was then removed by aspiration and […] of starvation media (F12K+1% FBS) was added to each well. After 24 hours, […] of test agent dissolved in 1% DMSO in starvation medium or this vehicle alone was added into each treatment well; the final DMSO concentration was 0.1%. One hour later, […] of VEGF (30 ng/mL) in starvation media was added to all wells except those containing untreated controls; the final VEGF concentration was 6 ng/mL. Cellular proliferation was quantified 72 hours later by MTT dye reduction, at which time cells were exposed for 4 hours MTT (Promega Corp.). Dye reduction was stopped by addition of a stop solution (Promega Corp.) and absorbance at 595 nm was determined on a 96-well spectrophotometer plate reader.

T1 sequence (P35968 with tags, fused parts or gaps DEL940-989/E990V limits assumed): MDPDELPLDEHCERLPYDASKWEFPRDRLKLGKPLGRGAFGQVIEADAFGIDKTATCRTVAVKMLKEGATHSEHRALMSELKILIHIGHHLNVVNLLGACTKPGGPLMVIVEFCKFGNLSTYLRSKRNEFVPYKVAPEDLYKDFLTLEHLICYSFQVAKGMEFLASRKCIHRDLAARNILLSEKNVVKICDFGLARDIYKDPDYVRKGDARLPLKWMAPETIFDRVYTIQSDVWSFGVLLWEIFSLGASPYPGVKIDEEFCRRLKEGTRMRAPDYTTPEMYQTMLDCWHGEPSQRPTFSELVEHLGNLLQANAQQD
T2 sequence (P11362 456-766 L457V/C488A/C584S): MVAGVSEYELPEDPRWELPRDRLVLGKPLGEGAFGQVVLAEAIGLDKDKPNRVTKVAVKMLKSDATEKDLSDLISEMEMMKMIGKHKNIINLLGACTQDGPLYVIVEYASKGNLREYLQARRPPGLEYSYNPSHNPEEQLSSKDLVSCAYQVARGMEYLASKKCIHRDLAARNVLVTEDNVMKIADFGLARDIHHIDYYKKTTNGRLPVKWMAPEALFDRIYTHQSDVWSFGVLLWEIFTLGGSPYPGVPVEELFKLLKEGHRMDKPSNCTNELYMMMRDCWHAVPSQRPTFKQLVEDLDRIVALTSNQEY

The compound `Cc1ccnc(NC(=O)Cc2ccc(Oc3ccnc4cc(-c5nccn5C)sc34)cc2)c1` [Example 11, 2-{4-[2-(1-Methyl-1H-imidazol-2-yl)-thieno[3,2-b]pyridin-7-yloxy]-phenyl}-N-(4-methyl-pyridin-2-yl)-acetamide] registered an inhibitory constant (Ki) in assay [1] of under 1 nM. For the same compound, the inhibition at 0.05 µM in assay [2] was 0 to 5%. The IC50 in assay [3] is over 10 nM.

For `Cn1ccnc1-c1cc2nccc(Oc3ccc(CC(=O)Nc4cc5ccccc5cn4)cc3)c2s1` [Example 12, N-Isoquinolin-3-yl-2-(4-[2-(1-methyl-1H-imidazol-2-yl)-thieno[3,2-b]pyridin-7-yloxy]-phenyl}-acetamide], the Ki in assay [1] was under 1 nM. In addition, the inhibition at 0.05 µM in assay [2] is 5 to 10%. For the same compound, in assay [3], the IC50 was over 10 nM.

In assay [1], `Cn1ccnc1-c1cc2nccc(Oc3ccc(CC(=O)Nc4ccc(C(F)(F)F)cn4)cc3)c2s1` [Example 13, 2-{4-[2-(1-Methyl-1H-imidazol-2-yl)-thieno[3,2-b]pyridin-7-yloxy]-phenyl}-N-(5-trifluoromethyl-pyridin-2-yl)-acetamide] gave a Ki of under 1 nM. In assay [2], the inhibition at 0.05 µM was 5 to 10%. Further, in assay [3], the half-inhibitory concentration (IC50) is over 10 nM.

The compound `Cc1cc(C)nc(NC(=O)Cc2ccc(Oc3ccnc4cc(C(=O)N5CC[C@@H](O)C5)sc34)cc2)c1` [Example 14, N-(4,6-Dimethyl-pyridin-2-yl)-2-{4-[2-((R)-3-hydroxy-pyrrolidine-1-carbonyl)-thieno[3,2-b]pyridin-7-yloxy]-phenyl}-acetamide] registered a Ki in assay [1] of under 1 nM. The inhibition at 0.05 µM in assay [2] was in the range of 5 to 10%. Further, the half-inhibitory concentration (IC50) in assay [3] was 1 to 10 nM.

Regarding `Cc1ccnc(NC(=O)Cc2ccc(Oc3ccnc4cc(C(=O)N5CC[C@@H](O)C5)sc34)cc2)c1` [Example 15, 2-{4-[2-((R)-3-Hydroxy-pyrrolidine-1-carbonyl)-thieno[3,2-b]pyridin-7-yloxy]-phenyl}-N-(4-methyl-pyridin-2-yl)-acetamide], the inhibition constant Ki in assay [1] was under 1 nM. The inhibition at 0.05 µM in assay [2] lay within 0 to 5%. Further, the IC50 in assay [3] is under 1 nM.

In assay [1], `O=C(Cc1ccc(Oc2ccnc3cc(C(=O)N4CC[C@@H](O)C4)sc23)cc1)Nc1ccc(Cl)cn1` [Example 16, N-(5-Chloro-pyridin-2-yl)-2-{4-[2-((R)-3-hydroxy-pyrrolidine-1-carbonyl)-thieno[3,2-b]pyridin-7-yloxy]-phenyl}-acetamide] gave an inhibition constant Ki of 1 to 10 nM. Further, the inhibition at 0.05 µM in assay [2] fell in the range of 0 to 5%. Also, the IC50 in assay [3] was over 10 nM.

As for `O=C(Cc1ccc(Oc2ccnc3cc(C(=O)N4CC[C@@H](O)C4)sc23)cc1)Nc1cc2ccccc2cn1` [Example 17, 2-{4-[2-((R)-3-Hydroxy-pyrrolidine-1-carbonyl)-thieno[3,2-b]pyridin-7-yloxy]-phenyl}-N-isoquinolin-3-yl-acetamide], in assay [1], the Ki is under 1 nM. For the same compound, the inhibition at 0.05 µM in assay [2] was over 10%. The half-inhibitory concentration (IC50) in assay [3] was over 10 nM.

With `O=C(Cc1ccc(Oc2ccnc3cc(C(=O)N4CC[C@@H](O)C4)sc23)cc1)Nc1ccc(C(F)(F)F)cn1` [Example 18, 2-{4-[2-((R)-3-Hydroxy-pyrrolidine-1-carbonyl)-thieno[3,2-b]pyridin-7-yloxy]-phenyl}-N-(5-trifluoromethyl-pyridin-2-yl)-acetamide], in assay [1], the inhibitory constant (Ki) was under 1 nM. Further, the inhibition at 0.05 µM in assay [2] fell in the range of 5 to 10%. In assay [3], the IC50 is over 10 nM.

Regarding `O=C(Cc1ccc(Oc2ccnc3cc(C(=O)N4CC[C@@H](O)C4)sc23)cc1)Nc1ccccn1` [Example 19, 2-{4-[2-((R)-3-Hydroxy-pyrrolidine-1-carbonyl)-thieno[3,2-b]pyridin-7-yloxy]-phenyl}-N-pyridin-2-yl-acetamide], the inhibition constant Ki in assay [1] lay within 1 to 10 nM. The inhibition at 0.05 µM in assay [2] lay in the range of 0 to 5%. Further, the half-maximal inhibitory concentration (IC50) in assay [3] was over 10 nM.

`O=C(Cc1ccc(Oc2ccnc3cc(C(=O)N4CC[C@@H](O)C4)sc23)cc1)Nc1ccccc1` [Example 20, 2-{4-[2-((R)-3-Hydroxy-pyrrolidine-1-carbonyl)-thieno[3,2-b]pyridin-7-yloxy]-phenyl}-N-phenyl-acetamide] yielded a Ki in assay [1] of 1 to 10 nM. For the same compound, the inhibition at 0.05 µM in assay [2] was in the range of 0 to 5%. In assay [3], the IC50 is 1 to 10 nM.

`Cc1ccnc(NC(=O)Cc2ccc(Oc3ccnc4cc(C(=O)N5CCC5)sc34)cc2)c1` [Example 23, 2-{4-[2-(Azetidine-1-carbonyl)-thieno[3,2-b]pyridin-7-yloxy]-phenyl}-N-(4-methyl-pyridin-2-yl)-acetamide]: the inhibition constant Ki in assay [1] was under 1 nM. Moreover, in assay [2], the inhibition at 0.05 µM was in the range of 0 to 5%. Also, the IC50 in assay [3] is under 1 nM.

With `Cc1ccc(NC(=O)Cc2ccc(Oc3ccnc4cc(C(=O)N5CCC5)sc34)cc2)nc1` [Example 24, 2-{4-[2-(Azetidine-1-carbonyl)-thieno[3,2-b]pyridin-7-yloxy]-phenyl}-N-(5-methyl-pyridin-2-yl)-acetamide], the Ki in assay [1] is under 1 nM. For the same compound, the inhibition at 0.05 µM in assay [2] fell in the range of 0 to 5%. Further, the 50% inhibitory concentration (IC50) in assay [3] fell in the range of 1 to 10 nM.

In turn, `Cc1cccc(NC(=O)Cc2ccc(Oc3ccnc4cc(C(=O)N5CCC5)sc34)cc2)n1` [Example 25, 2-{4-[2-(Azetidine-1-carbonyl)-thieno[3,2-b]pyridin-7-yloxy]-phenyl}-N-(6-methyl-pyridin-2-yl)-acetamide] displayed a Ki in assay [1] of under 1 nM. Further, the inhibition at 0.05 µM in assay [2] lay within 5 to 10%. Also, the IC50 in assay [3] was 1 to 10 nM.

For `O=C(Cc1ccc(Oc2ccnc3cc(C(=O)N4CCC4)sc23)cc1)Nc1ccc(C(F)(F)F)cn1` [Example 27, 2-{4-[2-(Azetidine-1-carbonyl)-thieno[3,2-b]pyridin-7-yloxy]-phenyl}-N-(5-trifluoromethyl-pyridin-2-yl)-acetamide], the Ki in assay [1] is under 1 nM. In addition, the inhibition at 0.05 µM in assay [2] is 0 to 5%. Further, the concentration for half-maximal inhibition (IC50) in assay [3] was in the range of 1 to 10 nM.

As to `O=C(Cc1ccc(Oc2ccnc3cc(C(=O)N4CCC4)sc23)cc1)Nc1ccc(Cl)cn1` [Example 28, 2-{4-[2-(Azetidine-1-carbonyl)-thieno[3,2-b]pyridin-7-yloxy]-phenyl}-N-(5-chloro-pyridin-2-yl)-acetamide], the inhibition constant Ki in assay [1] is under 1 nM. Moreover, the inhibition at 0.05 µM in assay [2] was 5 to 10%. Also, in assay [3], the half-inhibitory concentration (IC50) was under 1 nM.

For `O=C(Cc1ccc(Oc2ccnc3cc(C(=O)N4CCC4)sc23)cc1)Nc1ccc(F)cn1` [Example 29, 2-{4-[2-(Azetidine-1-carbonyl)-thieno[3,2-b]pyridin-7-yloxy]-phenyl}-N-(5-fluoro-pyridin-2-yl)-acetamide], the inhibition constant (Ki) in assay [1] lay in the range of 1 to 10 nM. The inhibition at 0.05 µM in assay [2] was 0 to 5%. Besides, the 50% inhibitory concentration (IC50) in assay [3] was over 10 nM.
